# According to patent publication US20230414654A1, “METHODS OF TREATING COPPER METABOLISM-ASSOCIATED DISEASES OR DISORDERS” (Alexion Pharmaceuticals, Inc., priority 2020, published 2023):
# Like-named read-outs stand apart in the source and are kept apart here. Marks after values point to notes of the source that are not given here.
# Experiments:
# [1] = Mobilization of copper from tissue (Studies 106, 201, 203); details: Study 106, Study 201 (BC-TTM); Study 203 (SoC)
# [2] = cited from earlier work
# [3] = in vivo; cited from earlier work
# [4] = tested on: participants with WD; details: for participants considered successfully treated (NCC/NCCcorrected primary endpoint): by Week 24; for participants considered successful (primary endpoint): last assessment of Extension Period
# Experimental: This study was conducted in US and European sites. […] A total of 28 participants were enrolled and treated (10 in Cohort 1 [treatment experienced] and 18 in Cohort 2 [treatment naïve or minimally treated]). One participant was enrolled in Cohort 2 but not treated.
# NCC levels within or above the normal reference range at enrollment were required. […] Dosing was individualized, guided by NCC levels (adjusted for molybdenum plasma concentration) and safety data. The primary efficacy endpoint was related to the proportion of successful participants, i.e., the proportion of participants who achieved plasma “free” copper control or improvement from baseline.
# Due to small sample size and data variability, the median values for the weighted averages of the doses will be cited throughout.
# The primary endpoint in study 201 was the change in NCC/NCCcorrected from baseline to Week 24.
# In Study 201, 12-hour dense PK/PD samples for plasma total molybdenum and copper were collected on Day 1, Week 12, and Week 24. Plasma samples for assessing “free” copper were also collected at 0, 4, and 8 hours during those visits and assayed for LBC concentrations. For the purpose of comparison across Studies 106 and 201, FIG. 3 has super-imposed LBC/total copper ratios-time profiles within the 12-hour time window after dosing from both studies.
# [5] = tested on: healthy participants
# Experimental: Twenty-four participants were enrolled (12 Japanese and 12 non-Japanese). […] Participants were followed 10 days after dosing within each Dosing Period, and a minimum of 14 days (+2 days) separated the dosing periods. PK and PD concentrations were measured over the next several hours for the first day and once daily for the next 9 days. Therefore, Study 106 permits examination of PK and PD profile changes within hours after drug administration.
compound,measurement,setting,value
"CC(C)(S)[C@@H](N)C(=O)O [Penicillamine, (2S)-2-amino-3-methyl-3-sulfanylbutanoic acid]",Mobilization of Copper from Tissue,[1],No (Study 203)
"NCCNCCNCCN [Trientine, N-[2-(2-aminoethylamino)ethyl]ethane-1,2-diamine]",Cu-Binding Selectivity,[2],"Cu^2+, and other"
same,Mobilization of Copper from Tissue,[1],No
"[Zn] [Zinc, zinc]",Mobilization of Copper from Tissue,[1],No (Study 203)
same,Route of Copper Elimination,[3],Non-absorbed
Bis-choline tetrathiomolybdate [BC-TTM],Cu-Binding Selectivity,[2],Cu^+ and Cu^2+*
same,drop of LTC Ratio (LBC/total copper) from baseline,"[4]; Day 1, 4 hours post dose, weighted average dose 30 mg",~30%
same,nadir drop of LTC Ratio compared to Day 1 pre-dose baseline,"[4]; Week 24, 4 hours post-dose, weighted average dose 35.8 mg",~50%
same,reduction of mean serum non-ceruloplasmin-bound Cu (NCC),"[4]; Week 24 compared with baseline, 28 patients with WD, monotherapy",72%
same,reduction of pre-dose LTC Ratio compared to Day 1 pre-dose baseline,"[4]; Week 24 pre-dose, weighted average dose 35.8 mg",~30%
same,participants considered successfully treated (NCC/NCCcorrected primary endpoint),[4]; Cohort 1 (treatment experienced),90.0%
same,participants considered successfully treated (NCC/NCCcorrected primary endpoint),[4]; Cohort 2 (treatment naïve or minimally treated),83.3%
same,paradoxical neurological worsening upon treatment initiation,[4]; in vivo,No paradoxical neurological worsening was observed
same,patients with reversible liver function test elevations,[4]; in vivo,39%
same,tolerability,[4]; in vivo,generally well-tolerated
same,participants considered successful (primary endpoint),[4]; Cohort 1,90.0%
same,participants considered successful (primary endpoint),[4]; Cohort 2,83.3%
same,participants considered successful (primary endpoint),[4]; all participants,85.7%
same,time of maximum plasma total copper concentration post dose,[5]; 15 mg or 60 mg single dose,8 to 12 h
same,maximum median increase of plasma total copper from baseline,[5]; 8-12 hours post dose,26-34%
same,median plasma LBC as % of pre-dose baseline concentration,"[5]; 12-24 hours post dose, combined ethnicity and dose data",80-90%
same,median plasma LBC nadir as % of pre-dose baseline concentration,"[5]; 3 hours post dose, combined ethnicity and dose data",50-70%
same,percentage of plasma LBC relative to plasma total copper (AUEC),"[5]; after administration, all participants, both ethnicities and doses pooled",7%
same,time at which median plasma LBC returned to baseline,[5]; after dose,10 days
same,maximum individual plasma LBC concentration,[5]; after single 15 mg dose,2.79 µM
same,maximum individual plasma total copper concentration,[5]; after single 15 mg dose,23.0 µM
same,maximum individual plasma LBC concentration,[5]; after single 60 mg dose,2.93 µM
same,maximum individual plasma total copper concentration,[5]; after single 60 mg dose,21.7 µM
same,dose proportionality of plasma total molybdenum Cmax and AUC,"[5]; human, in vivo",less than dose-proportionally
same,time to maximum plasma molybdenum (Tmax),"[5]; human, in vivo",5 h
same,delay of maximum plasma total copper after maximum plasma total molybdenum,[5]; in vivo,3 to 7 h
same,plasma molybdenum anticipated to be in the form of TPCs,[5]; in vivo,approximately 96%
same,time at which total copper concentrations had returned to predose baseline,[5]; post dose,240 h
same,Mobilization of Copper from Tissue,[1],Yes (Study 106;
same,Route of Copper Elimination,[3],Biliary/fecal
